Measured values taken from patent US20030013717A1, “Use of cox-2 inhibitors for constipation” (priority 2000, published 2003).

How the values were obtained:
Rats = test: Rat model of post-operative ileus (methylene blue meal transit); type: in vivo; conditions: 3 mg/kg intravenous infusion; four hours post-gavage; eight rats; p<0.05; vehicle 49.3 cm
Protocol: Activity in Vivo: Rat Model of Post Perative Ileus
The selective COX-2 inhibitor 2-(4-ethoxy-phenyl)-3-(4-methanesulfonyl-phenyl)-pyrazolo[1,5-b]pyridazine was evaluated in a rat model of post-operative ileus. The methodology represents a modification of the procedure described by McGill et al, Gastroenterology 116: A1040 (1999).
Rats (fourteen) received 0.5 cc of skimmed milk with methylene blue by gavage. Either vehicle (six rats) or 2-(4-ethoxy-phenyl)-3-(4-methanesulfonyl-phenyl)-pyrazolo[1,5-b]pyridazine (eight rats) was then administered by intravenous infusion. Rats were sacrificed four hours post-gavage and the distance the methylene blue meal traversed the intestine measured. The pylorus was set at 0 cm. With vehicle treatment, the meal traversed 49.3+1.3 cm while with 2-(4-ethoxy-phenyl)-3-(4-methanesulfonyl-phenyl)-pyrazolo[1,5-b]pyridazine (3 mg/kg), the meal traversed 67.8±1.1 cm (p<0.05).

[1] = test system: canine fundic circular muscle; test: Smooth muscle in vitro model: fundic circular muscle strips, tension change; type: cell-based; conditions: test agent 10 μM; n=6-8 strips; FIG. 2
Beagle dogs = test: Dog model of gastric emptying (solid phase, gamma camera); type: in vivo; conditions: po for three days, measured on fourth day after am dosing; cisapride 0.14 mg/kg TID, celecoxib 2.8 mg/kg BID, 8-acetyl compound 1.2 mg/kg BID; FIG. 3
Protocol: Activity in Vivo: Dog Model of Gastric Emptying
Beagle dogs were treated for three days with test agents (po administration): placebo BID; cisapride 0.14 mg/kg TID; celecoxib 2.8 mg/kg BID; or 8-acetyl-3-(4-fluoro-phenyl)-2-(4-methanesulfonyl-phenyl)-imidazo[1,2-a]pyridine 1.2 mg/kg BID. Solid phase gastric emptying was measured on the fourth day following am dosing. The same three animals were used for evaluation of each agent, thus reducing any interanimal variations.
Isotope-labeled solid food was fed to the dogs for their morning meal and animals were then placed under a gamma camera and scans performed over the 24 to 36 hours.

dogs = test: Dog model of lower esophageal sphincter pressure (LESP); type: in vivo; conditions: 3 days treatment, measured day 4 after am dose; cisapride 0.14 mg/kg TID, celecoxib 1.2 mg/kg BID; compared to placebo; FIG. 4
Protocol: Activity in Vivo: Dog Model of Lower Esophageal Sphincter Pressure (LESP) Six adult dogs were instrumented with 14 French esophagostomy tubes. Animals were treated for 3 days with placebo (BID), cisapride (0.14 mg/kg TID) or celecoxib (1.2 mg/kg BID). On day 4 dogs received their am dose of test agent and water perfused manometry catheters were inserted through the esophagostomy tubes. Lower esophageal sphincter pressures (LESPs) were then monitored.

[2] = test system: canine antrum circular muscles; test: Smooth muscle in vitro model: antral circular muscle strips, acetylcholine-induced contraction; type: cell-based; conditions: test agent 10 μM; acetylcholine 1 μM; organ bath, Krebs solution; n=4-8 strips; FIG. 1
Protocol: Smooth Muscle in Vitro Model of Gastric Propulsion
Agents which stimulate antral smooth muscle activity would be expected to enhance the rate of gastric emptying by propulsion of contents in the aboral direction. By contrast, fundic relaxation could lead to delayed emptying of the stomach as the upper stomach would serve as a reservoir for gastric contents.
The effects of test agents were evaluated on strips of canine antrum circular muscles (n=4-8 strips) suspended in organ baths bathed with Krebs solution. Following establishment of baseline tension, acetylcholine (“ACh”; 1 μM), indomethacin (10 μM), or 8-acetyl-3-(4-fluoro-phenyl)-2-(4-methanesulfonyl-phenyl)-imidazo[1,2-a]pyridine (“8-Acetyl- . . . ”; 10 μM) were applied and tension changes monitored and recorded on a polygraph.

Row | SMILES | distance the methylene blue meal traversed the intestine (pylorus = 0 cm) (Rats) [cm] | relaxation / tension change of fundic circular muscle [1] | rate of solid phase gastric emptying (Beagle dogs) | lower esophageal sphincter pressure (LESP) (dogs) | sensitisation of antral circular muscle to acetylcholine-induced contractions [2]
1 | CCOc1ccc(-c2nn3ncccc3c2-c2ccc(S(C)(=O)=O)cc2)cc1 [2-(4-ethoxy-phenyl)-3-(4-methanesulfonyl-phenyl)-pyrazolo[1,5-b]pyridazine] | 67.8±1.1 |  |  |  | 
2 | CC(=O)c1cccn2c(-c3ccc(F)cc3)c(-c3ccc(S(C)(=O)=O)cc3)nc12 [8-acetyl-3-(4-fluoro-phenyl)-2-(4-methanesulfonyl-phenyl)-imidazo[1,2-a]pyridine] |  | only small changes in tension | increased the rate of gastric emptying |  | 
3 | COc1cc(N)c(Cl)cc1C(=O)NC1CCN(CCCOc2ccc(F)cc2)CC1OC (stereo not shown) [Cisapride, cisapride] |  |  | increased the rate of gastric emptying | increased LESP | 
4 | COc1ccc2c(c1)c(CC(=O)O)c(C)n2C(=O)c1ccc(Cl)cc1 [indomethacin] |  | near complete relaxation |  |  | enhanced acetylcholine-induced contractions
